{"source": "patent US20070105792A1", "about": "“Administration Of DNA Methylation Inhibitors For Treating Epigenetic Diseases” (priority 2005, published 2007)", "system": "adult patients with MDS", "assay": "Randomized open-label controlled clinical study of decitabine plus supportive care in MDS patients", "type": "in vivo, human", "text": "A randomized open-label, controlled clinical study at 23 sites evaluated 170 adult patients with MDS meeting French-American-British (FAB) classification and International Prognostic Scoring System (IPSS) High-Risk, Intermediate-2 and Intermediate-1 prognostic scores.\nEighty-nine patients were randomized to decitabine therapy plus supportive care (only 83 received drug), and 81 to Supportive Care (SC) alone. Patients with Acute Myeloid Leukemia (AML) were not intended to be included.\nDecitabine was supplied as a lyophilized powder, 50 mg in 20 mL vials, for reconstitution and injection. Decitabine was reconstituted with 10 mL of Sterile Water for Injection USP to yield a solution of 5 mg/mL decitabine and 6.8 mg/mL KH2PO4. The reconstituted solution was further diluted for intravenous infusion with prechilled (2-8° C.) 0.9% Sodium Chloride solution USP. To slow degradation of study drug, infusion solution was refrigerated at 2-8° C. until administration, for a maximum of 10 hours.\nPatients randomized to the decitabine arm received decitabine intravenously infused at a dose of 15 mg/m^2 over a three-hour period, every eight hours, for 3 consecutive days (1 cycle). Each administration of decitabine at a dose of 15 mg/m^2 infused over a three-hour period was a continuous infusion without changing the infusion bag. The total amount of decitabine per day was 45 mg/m^2; the total dose per cycle was 135 mg/m^2. […] For patients with inadequate counts 6 weeks after treatment, the study protocol specified that blood counts be repeated at least weekly during the following two-week interval, and that a reduced-dose cycle (11 mg/m^2 over a three-hour period, every eight hours, for 3 consecutive days) was to be administered if blood counts recovered to within acceptable limits (as defined above) between week 6 and 8.\nDelayed myelotoxicity, with a neutrophil nadir reached between about day 18-24, is the primary toxicity of decitabine. Cytopenias, however, are also a hallmark of the MDS disease process, making it difficult to distinguish between treatment-related neutropenia and disease progression. Accordingly, the protocol required that patients showing persistent neutropenia (ANC <1,000/μL) or thrombocytopenia (platelets <50,000/μL) beyond 8 weeks following a decitabine cycle undergo bone marrow aspiration and biopsy. Upon a finding of no disease progression (i.e. only bone marrow aplasia), blood counts were to be monitored for an additional two weeks, and a reduced-dose cycle (as defined above) was to be administered if blood counts recovered to within acceptable limits (as defined above) during weeks 8-10. Patients showing neutropenia or thrombocytopenia beyond 10 weeks were to receive no further decitabine treatment.\nSupportive care consisted of blood and blood product transfusions, prophylactic antibiotics, and hematopoietic growth factors. Co-primary endpoints of the study were overall response rate (CR+PR) and time to AML or death. Responses were classified with the MDS International Working Group (IWG) criteria; patients were required to be RBC and platelet transfusion independent during the time of response.", "key": {"[1]": {"conditions": "ITT, N = 89, 15 mg/m^2 3 hr iv infusion every 8 hrs for 3 days"}, "[2]": {"conditions": "ITT, N = 89, listed as decitabine"}, "[3]": {"conditions": "patients evaluable for response (confirmed MDS at baseline, at least 2 courses)"}, "[4]": {"conditions": "patients with adjudicated baseline diagnosis of AML"}, "[5]": {"conditions": "patients with cytogenetic abnormalities, MDS IWG criteria"}}, "note": "Marks after values point to notes of the source that are not given here."}
{"compound": "Nc1ncn([C@H]2C[C@H](O)[C@@H](CO)O2)c(=O)n1", "note": "[Decitabine, 5-aza-2′-deoxycytidine]", "values": [{"measurement": "Response by IPSS Classification (CR + PR)", "setting": "High Risk", "value": "(13%)"}, {"measurement": "Response by IPSS Classification (CR + PR), responders/patients", "setting": "High Risk", "value": "3/23"}, {"measurement": "Median Duration of (CR + PR + HI) response", "setting": "ITT", "value": 253, "unit": "days"}, {"measurement": "Median time to (CR + PR + HI) response", "setting": "ITT", "value": 44, "unit": "days"}, {"measurement": "Complete Response (CR)", "setting": "ITT, N = 89", "value": "(9%)"}, {"measurement": "Complete Response (CR), number of patients", "setting": "ITT, N = 89", "value": 8}, {"measurement": "Hematologic Improvement (HI)", "setting": "ITT, N = 89", "value": "(12%)"}, {"measurement": "Hematologic Improvement (HI), number of patients", "setting": "ITT, N = 89", "value": 11}, {"measurement": "Overall Improvement Rate (CR + PR + HI)", "setting": "ITT, N = 89", "value": "(29%)**"}, {"measurement": "Overall Improvement Rate (CR + PR + HI), number of patients", "setting": "ITT, N = 89", "value": 26}, {"measurement": "Partial Response (PR)", "setting": "ITT, N = 89", "value": "(8%)"}, {"measurement": "Partial Response (PR), number of patients", "setting": "ITT, N = 89", "value": 7}, {"measurement": "Overall Response Rate (CR + PR)", "setting": "[1]", "value": 17, "unit": "%"}, {"measurement": "Overall Response Rate (CR + PR), number of patients", "setting": "[1]", "value": 15}, {"measurement": "Hematologic Improvement (HI)", "setting": "[2]", "value": 12, "unit": "%"}, {"measurement": "Overall Improvement Rate (CR + PR + HI)", "setting": "[2]", "value": 29, "unit": "%"}, {"measurement": "Response by IPSS Classification (CR + PR)", "setting": "Int-1", "value": "(14%)"}, {"measurement": "Response by IPSS Classification (CR + PR), responders/patients", "setting": "Int-1", "value": "4/28"}, {"measurement": "Response by IPSS Classification (CR + PR)", "setting": "Int-2", "value": "(21%)"}, {"measurement": "Response by IPSS Classification (CR + PR), responders/patients", "setting": "Int-2", "value": "8/38"}, {"measurement": "Patients who became transfusion independent", "setting": "RBC transfusion dependent at baseline", "value": 39, "unit": "%"}, {"measurement": "RBC and platelet transfusion status of responders", "setting": "all 15 responders, in the absence of growth factors", "value": "remained or became RBC and platelet transfusion independent"}, {"measurement": "Quality of Life assessment (EORTC scale)", "setting": "baseline, end of each treatment cycle and post-treatment", "value": "less dyspnea, less fatigue and better physical functioning and global health status"}, {"measurement": "Median time to AML or death", "setting": "decitabine arm, p=0.160, ns vs SC", "value": 340, "unit": "days"}, {"measurement": "Cycle by which all responders had responded", "setting": "decitabine patients who responded", "value": "by the fourth cycle"}, {"measurement": "Median Duration of (CR + PR) response", "setting": "decitabine responders", "value": 266, "unit": "days"}, {"measurement": "Median time to (CR + PR) response", "setting": "decitabine responders", "value": 89, "unit": "days"}, {"measurement": "Overall response rate", "setting": "[3]", "value": 21, "unit": "%"}, {"measurement": "Overall response rate, responders/patients", "setting": "[3]", "value": "12/56"}, {"measurement": "Objective response (CR or PR)", "setting": "[4]", "value": 56, "unit": "%"}, {"measurement": "Objective response (CR or PR), responders/patients", "setting": "[4]", "value": "5/9"}, {"measurement": "Major cytogenetic responses", "setting": "[5]", "value": 21, "unit": "%"}, {"measurement": "Major cytogenetic responses, responders/patients", "setting": "[5]", "value": "10/48"}, {"measurement": "Minor cytogenetic response, number of patients", "setting": "[5]", "value": "one"}, {"measurement": "Patients who became transfusion dependent", "setting": "transfusion independent at baseline", "value": 15, "unit": "%"}]}
